The source of these data is US11884643B2, “Substituted thiophenecarboxamides and analogues as antibacterials agents” (priority 2018, dated 2024).

Structures are written as SMILES. Where two headings read alike, the source gives them in different places.

Data set [1] can be described thus: Log P by HPLC on reversed phase columns (EEC directive 79/831 Annex V.A8). It counts as physicochemical. As for the experimental part:
If more than one Log P value is available within the same method, all the values are given and separated by “+”. Calibration was done with straight-chain alkan2-ones (with 3 to 16 carbon atoms) with known Log P values (measurement of Log P values using retention times with linear interpolation between successive alkanones). Lambda-max-values were determined using UV-spectra from 200 nm to 400 nm and the peak values of the chromatographic signals.

Data set [2] concerns Xanthomonas campestris pv. Campestris. Nature of the data set: Xanthomonas campestris pv. Campestris in vitro cell test (bacteria growth in liquid culture). The data set is classed as cell-based. The settings on record: 20 ppm of tested compound, 24 h of incubation. Here is the method: Culture medium: LB broth medium (Luria Broth Miller) Sigma
Inoculum: bacteria suspension
Compounds to be tested were solubilized in DMSO and the solution used to prepare the required range of concentrations. The final concentration of DMSO used in the assay was ≤1%.
Inoculum was prepared from a pre-culture of bacteria grown in liquid medium and diluted to the desired optical density (OD).
Compounds were evaluated for their ability to inhibit bacteria growth in liquid culture assay. The compounds were added in the desired concentrations to culture medium containing the bacteria suspension. After 24 h of incubation, the efficacy of compounds was determined by spectrometric measurement of bacteria growth. Inhibition was determined by comparing the absorbance values in wells containing the compounds with the absorbance in control wells without compounds.

The mark [3] stands for this setting: method [a]: LC-UV, acidic range, 0.1% formic acid in water and acetonitrile as eluent.
Setting [4] is: reversed phase HPLC columns, method [a]: LC-UV, acidic range, 0.1% formic acid in water and acetonitrile as eluent, read-out: LogP.
The mark [5] stands for this setting: reversed phase HPLC columns, value given in preparation example, method letter not indicated, read-out: Log P.

As for `O=C1OC(c2sc(Br)c(Br)c2F)=NC12CC2` [III.01, 5-(4,5-dibromo-3-fluoro-2-thienyl)-6-oxa-4-azaspiro[2.4]hept-4-en-7-one], the chromatographic logP came out at 3.58 in data set [1] (Log P) and 3.57 in data set [1] (LogP). The “direct activity (inhibition of bacteria growth)” value in data set [2] is “no direct activity”.
With `Cc1c(C2=NC3(CC3)C(=O)O2)sc(Br)c1Br` [III.02], the LogP in data set [1] (setting [3]) is 4.33^[a]. Besides, the “direct activity (inhibition of bacteria growth)” value in data set [2] was “no direct activity”.
In the same order, the values of `O=C1OC(c2sc(Cl)c(Cl)c2Cl)=NC12CC2` [III.03] are 4.01^[a] and “no direct activity”.
In the same order, the values of `Cc1c(C2=NC3(CC3)C(=O)O2)sc(Cl)c1Cl` [III.04] are 4.30^[a] and “no direct activity”.
In the same order, the values of `O=C1OC(c2sc(Br)c(Br)c2I)=NC12CC2` [III.05] are 4.30^[a] and “no direct activity”.
For the compound `O=C1OC(c2sc(Br)c(Br)c2Br)=NC12CC2` [III.06], in data set [1] (setting [3]), the LogP was 4.15^[a].
For `O=C1OC(c2sc(Cl)c(Cl)c2Br)=NC12CC2` [III.07], the LogP in data set [1] (setting [3]) is 4.12^[a].
On the same count and under the same terms, as for `O=C1OC(c2sc(Br)c(Br)c2Cl)=NC12CC2` [III.08], the figure is 4.08^[a].
On the same count and under the same terms, under `O=C1OC(c2sc(Cl)c(Cl)c2I)=NC12CC2` [III.09] stands 4.23^[a].
For `CCOC(=O)C1(NC(=O)c2sc(Br)c(Br)c2F)CC1` [XXI.01, ethyl 1-{[(4,5-dibromo-3-fluoro-2-thienyl)carbonyl]amino}cyclopropanecarboxylate], the chromatographic logP in data set [1] (setting [4]) was found to be 3.17; in data set [1] (setting [5]), 3.15.
As to `O=C(NC1(C(=O)O)CC1)c1sc(Br)c(Br)c1F` [XXI.03, 1-{[(4,5-dibromo-3-fluoro-2-thienyl)carbonyl]amino}cyclopropanecarboxylic acid], the chromatographic logP in data set [1] (setting [4]) was 2.14; in data set [1] (setting [5]) it was 2.15.
On to `CCOC(=O)C1(NC(=O)c2sc(Cl)c(Cl)c2Cl)CC1` [XXI.05, ethyl 1-{[(3,4,5-trichloro-2-thienyl)carbonyl]amino}cyclopropanecarboxylate], for which the LogP in data set [1] (setting [3]) was 3.41^[a].
Turning to `CCOC(=O)C1(NC(=O)c2sc(Cl)c(Cl)c2I)CC1` [XXI.08, ethyl 1-{[(4,5-dichloro-3-iodo-2-thienyl)carbonyl]amino}cyclopropanecarboxylate], the chromatographic logP in data set [1] (setting [4]) was 3.39.
As to `CCOC(=O)C1(NC(=O)c2sc(Cl)c(Cl)c2C)CC1` [XXI.11, ethyl 1-{[(4,5-dichloro-3-methyl-2-thienyl)carbonyl]amino}cyclopropanecarboxylate], the chromatographic logP in data set [1] (setting [4]) and in data set [1] (setting [5]) was 3.16 throughout.
Consider `Cc1c(C(=O)NC2(C(=O)O)CC2)sc(Cl)c1Cl` [XXI.14], for which the LogP in data set [1] (setting [3]) is 2.17^[a].
Still for that read-out and setting: as for `O=C(NC1(C(=O)O)CC1)c1sc(Cl)c(Cl)c1Br` [XXI.22], the figure is 2.37^[a]; as for `O=C(O)c1sc(Cl)c(Cl)c1Br` [XXIIa.06], 2.52^[a].
On the same count and under the same terms, under `COC(=O)c1sc(Cl)c(Cl)c1Br` [XXIIa.09] stands 4.11^[a].
Turning to `CC(C)COC(=O)c1sc(Cl)c(Cl)c1Cl` [XXIIa.13], the LogP in data set [1] (setting [3]) is 5.75^[a].
As a reminder, the Log P is a log measure of how a compound divides between an organic and an aqueous phase. With `CCOC(=O)C1(NC(=O)c2sc(Cl)c(Cl)c2N)CC1` [XXVIII.01, ethyl 1-{[(3-amino-4,5-dichloro-2-thienyl)carbonyl]amino}cyclopropanecarboxylate], the LogP in data set [1] (setting [3]) is 2.77^[a]. Besides, the “Log P” value in data set [1] (value given in preparation example, method letter not indicated) is given as 2.77.
In the case of `Cl.Nc1c(C(=O)O)sc(Cl)c1Cl` [XXXa.02, 3-amino-4,5-dichlorothiophene-2-carboxylic acid hydrochloride (1:1)], the LogP in data set [1] (setting [3]) was 2.05^[a].
